{
  "source": "patent US20020165233A1",
  "about": "“Quinoxaline containing medicaments for post exposure prophylaxis of an HIV infection” (priority 1999, published 2002)",
  "assay_type_in_all_cases": "in vivo, rhesus monkeys",
  "key": {"RT-SHIV [1]": {"system": "RT-SHIV", "assay": "RT-SHIV proviral DNA in PBMC and LNMC (quantitative PCR)", "conditions": "for RT-SHIV proviral DNA in LNMC: 8 w p.e.", "method": "(§1) Nine rhesus monkeys (male, 2 years old, 2-3 kg) were seronegative for SIV, Simian T cell Leukemia Virus (STLV), B virus and Type D retroviruses. 15 mg/kg body weight of COMPOUND A was subcutaneously administered into animals twice a day (12 h interval) for 28 d. Animals were divided into three groups. All animals were intravenously administered with 100 TCID50 of RT-SHIV The first group consisted of three animals treated with COMPOUND A from 8 h post exposure for 28 d. The second group of animals was treated with COMPOUND A from 24 h post exposure for 28 d. The third group (control) received the solvent that was used to dissolve COMPOUND A (PEG400:glycerol:water=[…]) from 8 h post exposure for 28 d.\n(§2) Blood was collected from all the animals either just before or 2 h after the drug administration on 0, 3, 7, 10, 14, 21, 29 d post exposure in order to check the drug concentration, otherwise in intervals of 2 to 8 weeks. Biopsy of inguinal lymph nodes was conducted on 17 d or 18 d and 8 weeks post exposure in two animals per group. Cerebrospinal fluid (CSF) was collected from the animals just before biopsy.\nT-SHIV DNA Amount in Peripheral Blood Mononuclear Cells (PBMC) and Lymph Node Cells (LNC):\nPBMC were separated by Ficoll-Hypaque gradient centrifugation. Cellular DNA was purified from 1×10^6 cells with a commercial DNA purification kit (Qiagen). Gag sequence of viral DNA was PCR amplified with the primers SG05i and SG06i. Nested PCR amplification with two sets of primers, i.e. F34C (nt. 9065 to 9082)(5′-CCTACCTACAATATGGGT-3′) and F35C (nt. 9800 to 9778)(5′-[…]-3′), the second primers: N3 (nt. 9182 to 9201)(5′-GMGATGGATACTCGCAATC-3′) and N4, (nt. 9552 to 9533)(5′-TMTCCTGCCAATCTGGTAT-3′) was performed to detect one copy per 100,000 cells. Detection and quantitative determination of the viral DNA copy number was conducted as described for plasma viral load. The cell numbers of PBMC and LNC were estimated by imaging analysis of cyber green-stained chromosomal DNA separated by agarose gel electrophoresis.\nThe detection limit was 1 copy DNA per 100,000 cells. In contrast to the untreated animals, the proviral DNA levels were very low in the treated groups."}, "RT-SHIV [2]": {"system": "RT-SHIV", "assay": "Cytotoxic lymphocytes (CTL) assay against env and gag-pol", "conditions": "treated animals; all time points tested (3 w to 40 w post exposure)"}, "RT-SHIV [3]": {"system": "RT-SHIV", "assay": "Quantitative virus isolation (QVI) from PBMC co-cultured with C8166 and viral RNA PCR of culture supernatant", "design": "key to viral RNA PCR of QVI culture supernatant: +=positive; −=negative", "conditions": "animal #1, 15 mg/kg s.c. b.i.d. 8h thru 28 d post exp", "method": "as §1, §2\nViral RNA was detected from 7 or 10 d post exposure up to 40 weeks post exposure in all plasma specimen from two animals (FIG. 2). […] While in two animals plasma viral RNA levels persisted around 10^5 copy/ml after a moderate reduction occurred at 4 weeks post exposure, viral RNA levels in one animal declined to about 10^3 copy/ml after 15 weeks post exposure (FIG. 2). The RT-SHIV infection in PIBMC was monitored by quantitative virus isolation (QVI) and quantitative PCR assay of proviral DNA. Serially diluted PBMC were co-cultured with C8166 to determine the minimal PBMC cell number to provoke a productive infection of C8166 cells. The number from the QVI test indicates infectious cells per one million PBMC. QVI results were consistent with plasma viral RNA levels. The numbers indicates the results of QVI. A + or − on the right indicates results of viral RNA PCR assay for the detection of virus in culture supernatant. +=positive, −=negative."}},
  "note": "Entries after “also recorded” stand apart in the source; their conditions may differ.",
  "data": [
    {"smiles": "CC[C@H]1C(=O)Nc2ccc(F)cc2N1C(=O)OC(C)C", "note": "[Compound A, (3S)-ethyl-6-fluoro-4-isopropyloxycarbonyl-3,4-dihydroquinoxalin-2(1H)-one]", "values": [
      {"measurement": "RT-SHIV proviral DNA in PBMC", "setting": "RT-SHIV [1]; animal #1, treated 8h thru 28 dpi, 2 w p.e.", "value": "0 viral DNA copies/100,000 cells"},
      {"measurement": "RT-SHIV proviral DNA in PBMC", "setting": "RT-SHIV [1]; animal #1, treated 8h thru 28 dpi, 4 w p.e.", "value": "0 viral DNA copies/100,000 cells"},
      {"measurement": "RT-SHIV proviral DNA in PBMC", "setting": "RT-SHIV [1]; animal #1, treated 8h thru 28 dpi, 15 w p.e.", "value": "1 viral DNA copies/100,000 cells"},
      {"measurement": "RT-SHIV proviral DNA in PBMC", "setting": "RT-SHIV [1]; animal #1, treated 8h thru 28 dpi, 40 w p.e.", "value": "0 viral DNA copies/100,000 cells"},
      {"measurement": "RT-SHIV proviral DNA in PBMC", "setting": "RT-SHIV [1]; animal #1, treated 8h thru 28 dpi, 50 w p.e.", "value": "0 viral DNA copies/100,000 cells"},
      {"measurement": "RT-SHIV proviral DNA in PBMC", "setting": "RT-SHIV [1]; animal #3, treated 24 h thru 28 d pi, 2 w p.e.", "value": "0 viral DNA copies/100,000 cells"},
      {"measurement": "RT-SHIV proviral DNA in PBMC", "setting": "RT-SHIV [1]; animal #3, treated 24 h thru 28 d pi, 4 w p.e.", "value": "0 viral DNA copies/100,000 cells"},
      {"measurement": "RT-SHIV proviral DNA in PBMC", "setting": "RT-SHIV [1]; animal #3, treated 24 h thru 28 d pi, 15 w p.e.", "value": "16 viral DNA copies/100,000 cells"},
      {"measurement": "RT-SHIV proviral DNA in PBMC", "setting": "RT-SHIV [1]; animal #3, treated 24 h thru 28 d pi, 40 w p.e.", "value": "0 viral DNA copies/100,000 cells"},
      {"measurement": "RT-SHIV proviral DNA in PBMC", "setting": "RT-SHIV [1]; animal #3, treated 24 h thru 28 d pi, 50 w p.e.", "value": "2 viral DNA copies/100,000 cells"},
      {"measurement": "RT-SHIV proviral DNA in PBMC", "setting": "RT-SHIV [1]; animal #4, treated 24 h thru 28 d pi, 2 w p.e.", "value": "0 viral DNA copies/100,000 cells"},
      {"measurement": "RT-SHIV proviral DNA in PBMC", "setting": "RT-SHIV [1]; animal #4, treated 24 h thru 28 d pi, 4 w p.e.", "value": "0 viral DNA copies/100,000 cells"},
      {"measurement": "RT-SHIV proviral DNA in LNMC", "setting": "RT-SHIV [1]; animal #4, treated 24 h thru 28 d pi", "value": "1 viral DNA copies/100,000 cells"},
      {"measurement": "RT-SHIV proviral DNA in PBMC", "setting": "RT-SHIV [1]; animal #4, treated 24 h thru 28 d pi, 15 w p.e.", "value": "0 viral DNA copies/100,000 cells"},
      {"measurement": "RT-SHIV proviral DNA in PBMC", "setting": "RT-SHIV [1]; animal #4, treated 24 h thru 28 d pi, 40 w p.e.", "value": "0 viral DNA copies/100,000 cells"},
      {"measurement": "RT-SHIV proviral DNA in PBMC", "setting": "RT-SHIV [1]; animal #4, treated 24 h thru 28 d pi, 50 w p.e.", "value": "0 viral DNA copies/100,000 cells"},
      {"measurement": "RT-SHIV proviral DNA in PBMC", "setting": "RT-SHIV [1]; animal #5, treated 8h thru 28 dpi, 2 w p.e.", "value": "0 viral DNA copies/100,000 cells"},
      {"measurement": "RT-SHIV proviral DNA in PBMC", "setting": "RT-SHIV [1]; animal #5, treated 8h thru 28 dpi, 4 w p.e.", "value": "0 viral DNA copies/100,000 cells"},
      {"measurement": "RT-SHIV proviral DNA in LNMC", "setting": "RT-SHIV [1]; animal #5, treated 8h thru 28 dpi", "value": "2 viral DNA copies/100,000 cells"},
      {"measurement": "RT-SHIV proviral DNA in PBMC", "setting": "RT-SHIV [1]; animal #5, treated 8h thru 28 dpi, 15 w p.e.", "value": "0 viral DNA copies/100,000 cells"},
      {"measurement": "RT-SHIV proviral DNA in PBMC", "setting": "RT-SHIV [1]; animal #5, treated 8h thru 28 dpi, 40 w p.e.", "value": "0 viral DNA copies/100,000 cells"},
      {"measurement": "RT-SHIV proviral DNA in PBMC", "setting": "RT-SHIV [1]; animal #5, treated 8h thru 28 dpi, 50 w p.e.", "value": "0 viral DNA copies/100,000 cells"},
      {"measurement": "RT-SHIV proviral DNA in PBMC", "setting": "RT-SHIV [1]; animal #10, treated 8h thru 28 dpi, 2 w p.e.", "value": "0 viral DNA copies/100,000 cells"},
      {"measurement": "RT-SHIV proviral DNA in PBMC", "setting": "RT-SHIV [1]; animal #10, treated 8h thru 28 dpi, 4 w p.e.", "value": "0 viral DNA copies/100,000 cells"},
      {"measurement": "RT-SHIV proviral DNA in PBMC", "setting": "RT-SHIV [1]; animal #10, treated 8h thru 28 dpi, 15 w p.e.", "value": "7 viral DNA copies/100,000 cells"},
      {"measurement": "RT-SHIV proviral DNA in PBMC", "setting": "RT-SHIV [1]; animal #10, treated 8h thru 28 dpi, 40 w p.e.", "value": "1 viral DNA copies/100,000 cells"},
      {"measurement": "RT-SHIV proviral DNA in PBMC", "setting": "RT-SHIV [1]; animal #10, treated 8h thru 28 dpi, 50 w p.e.", "value": "5 viral DNA copies/100,000 cells"},
      {"measurement": "RT-SHIV proviral DNA in PBMC", "setting": "RT-SHIV [1]; animal #11, treated 24 h thru 28 d pi, 2 w p.e.", "value": "0 viral DNA copies/100,000 cells"},
      {"measurement": "RT-SHIV proviral DNA in PBMC", "setting": "RT-SHIV [1]; animal #11, treated 24 h thru 28 d pi, 4 w p.e.", "value": "0 viral DNA copies/100,000 cells"},
      {"measurement": "RT-SHIV proviral DNA in PBMC", "setting": "RT-SHIV [1]; animal #11, treated 24 h thru 28 d pi, 15 w p.e.", "value": "1 viral DNA copies/100,000 cells"},
      {"measurement": "RT-SHIV proviral DNA in PBMC", "setting": "RT-SHIV [1]; animal #11, treated 24 h thru 28 d pi, 40 w p.e.", "value": "0 viral DNA copies/100,000 cells"},
      {"measurement": "RT-SHIV proviral DNA in PBMC", "setting": "RT-SHIV [1]; animal #11, treated 24 h thru 28 d pi, 50 w p.e.", "value": "0 viral DNA copies/100,000 cells"},
      {"measurement": "proviral DNA levels (persistent infection) in treated groups relative to untreated", "setting": "RT-SHIV [1]; treated groups versus untreated animals", "value": "very low; also recorded: far lower level of persistent infection"},
      {"measurement": "CTL activity against env and gag-pol", "setting": "RT-SHIV [2]", "value": "constant high CTL activity"},
      {"measurement": "viral RNA PCR of QVI culture supernatant", "setting": "RT-SHIV [3]; week 2 post exp.", "value": "−/−"},
      {"measurement": "Quantitative virus isolation (QVI)", "setting": "RT-SHIV [3]; week 6 post exp.", "value": "4 infectious cells per one million PBMC"},
      {"measurement": "viral RNA PCR of QVI culture supernatant", "setting": "RT-SHIV [3]; week 6 post exp.", "value": "+"},
      {"measurement": "Quantitative virus isolation (QVI)", "setting": "RT-SHIV [3]; week 8 post exp.", "value": "16 infectious cells per one million PBMC"}
    ]}
  ]
}
